Measured values taken from patent EP0213108A2, “Pharmaceutical preparation containing an antihypotonic as the active agent” (Burghart, Kurt, Dr., priority 1985, dated 1987).
Where a name gives a salt, the structure may show the parent alone.

Test: Pulse and systolic/diastolic blood pressure over time after sublingual aerosol or oral administration
Assay type: in vivo
Details: hydrochloride, oral
Protocol: Die raschere Wirksamkeit der erfindungsgemäßen pharmazeutischen Zubereitung relativ zu einer konventionellen Zubereitung wird nachfolgen an Hand eine Ausführungsbeispieles näher erläutert.
In einer alkoholischen Lösung wurden hiebei unter Verwendung von Trichlorfluorkohlenwasserstoff als Treibgas 2,5 mg 1-(3'--Hydroxyphenyl)-2-aminoäthanol als Aerosol sublingual verabreicht. In der nachfolgenden Tabelle I sind unter A die Vergleichswerte für den systolischen und den diastolischen Druck über die Zeit bei Versprühen eines Placebos, unter B die Werte für den systolischen und den diastolischen Druck über die Zeit bei Verabreichung von 2,5 mg Base als Aerosol und unter C die systolischen und diastolischen Druckwerte bei Verabreichung der gleichen Wirksubstanz als Hydrochlorid und oral über die Zeit aufgetragen, wobei mit dem Zeitpunkt 0 Referenzwerte vorangestellt sind. Aus Tabelle B ist hiebei der rasche diastolische Druckanstieg bei sublingualer Verabreichung als Aerosol ersichtlich, wohingegen aus Tabelle C eine Steigerung des diastolischen Drucks frühestens nach Ablauf von 15 min entnommen werden kann.

NCC(O)c1cccc(O)c1 (stereo not shown) [C, 1-(3'-Hydroxyphenyl)-2-aminoäthanol-hydrochlorid]
Steigerung des diastolischen Drucks (time of onset): ≥ 15 min | Diastole (1'): 8,53 kPa | Puls (1'): 64 min⁻¹ | Systole (1'): 14,40 kPa | Diastole (3'): 8,67 kPa | Puls (3'): 66 min⁻¹ | Systole (3'): 14,00 kPa | Diastole (5'): 8,53 kPa | Puls (5'): 71 min⁻¹ | Systole (5'): 14,27 kPa | Diastole (7'): 8,53 kPa | Puls (7'): 68 min⁻¹ | Systole (7'): 14,40 kPa | Diastole (10'): 8,80 kPa | Puls (10'): 66 min⁻¹ | Systole (10'): 14,67 kPa | Diastole (12'): 8,80 kPa | Puls (12'): 68 min⁻¹ | Systole (12'): 13,87 kPa | Diastole (15'): 8,67 kPa | Puls (15'): 77 min⁻¹ | Systole (15'): 14,40 kPa | Diastole (20'): 9,33 kPa | Puls (20'): 52 min⁻¹ | Systole (20'): 14,93 kPa | Diastole (25'): 8,80 kPa | Puls (25'): 67 min⁻¹ | Systole (25'): 13,73 kPa | Diastole (30'): 9,60 kPa | Puls (30'): 69 min⁻¹ | Systole (30'): 14,27 kPa
